Each structure is given as a SMILES string. Calls of active or inactive are those of the source. The rule behind the calls is not given here.

Experimental findings from ChEMBL document CHEMBL5550222, “Synthesis and Biological Evaluation of Novel Psidium Meroterpenoid Derivatives against Cisplatin-Induced Acute Kidney Injury” (J Med Chem, 2024) are described below.

For data set [1], the system named is Mus musculus. The experiment in a line: Protection against cisplatin-induced nephrotoxicity in C57BL6/J mouse assessed as reduction in BUN level in kidney at 100 mg/kg, po preadministered with compound for 2 days followed by cisplatin addition on day 3 and measured 72 hrs post cisplatin administration. The data set is classed as functional, organism-based. The conditions noted are these: time 5.0 day.

Data set [2] in a line: Acute toxicity in C57BL/6J mouse assessed as lung damage at 1 g/Kg, po measured for 2 weeks by H and E staining based analysis. The data set is classed as organism-based. The conditions noted are these: in vivo, 1000 mg/kg, 336 h.
Data set [3] in a line: AUC (0 to infinity) in ICR mouse 1 mg/kg, iv measured for 24 hrs by HPLC-MS analysis. In kind it is ADME, organism-based. The following applies: in vivo.
The nature of data set [4]: Acute toxicity in C57BL/6J mouse assessed as small intestine damage at 1 g/Kg, po measured for 2 weeks by H and E staining based analysis. In kind it is organism-based. The following applies: in vivo, 1000 mg/kg, 336 h.
A short description of data set [5]: Cmax in ICR mouse 1 mg/kg, iv measured for 24 hrs by HPLC-MS analysis. In kind it is ADME, organism-based. The following applies: in vivo.
The nature of data set [6]: Acute toxicity in C57BL/6J mouse assessed as animal death at 1 g/Kg, po measured for 2 weeks. In kind it is organism-based. The following applies: in vivo, 1000 mg/kg, 336 h.
Data set [7] concerns HK-2. Put plainly: Protection against cisplatin-induced apoptosis in human HK-2 cells assessed as improvement in cell morphology preincubated with compound for 2 hrs followed by cisplatin induction and measured after 48 hrs by light microscopic analysis. The conditions noted are these: dose 2.5-10 µM, time 50.0 hrs. In kind it is functional, cell-based.
Data set [8] deals with HK-2. Put plainly: Effect on CTR1 mRNA level in human HK-2 cells by transcriptome sequencing analysis. The data set is classed as functional, cell-based.
The nature of data set [9]: AUC (0 to t) in ICR mouse 50 mg/kg, po measured for 24 hrs by HPLC-MS analysis. The data set is classed as ADME, organism-based. The following applies: in vivo.
Data set [10] is described as follows: Acute toxicity in C57BL/6J mouse assessed as kidney damage at 1 g/Kg, po measured for 2 weeks by H and E staining based analysis. In kind it is organism-based. The conditions noted are these: in vivo, 1000 mg/kg, 336 h.
The nature of data set [11]: Volume of distribution in ICR mouse 1 mg/kg, iv measured for 24 hrs by HPLC-MS analysis. The data set is classed as ADME, organism-based. The conditions noted are these: in vivo.
For data set [12], the system named is HK-2. The experiment in a line: Protection against cisplatin-induced nephrotoxicity in human HK-2 cells at 1 to 10 uM preincubated with compound for 2 hrs followed by cisplatin induction and measured after 72 hrs by MTT assay. In kind it is functional, cell-based. The following applies: dose 1-10 µM, time 74.0 hrs. On the technique in general: Formazan colour is commonly taken as a measure of viable cells.

A short description of data set [13]: Oral bioavailability in ICR mouse 50 mg/kg measured for 24 hrs by HPLC-MS analysis. The data set is classed as ADME, organism-based. The following applies: in vivo.
A short description of data set [14]: Acute toxicity in C57BL/6J mouse assessed as stomach damage at 1 g/Kg, po measured for 2 weeks by H and E staining based analysis. In kind it is organism-based. The following applies: in vivo, 1000 mg/kg, 336 h.
Data set [15] can be described thus: Cmax in ICR mouse 50 mg/kg, po measured for 24 hrs by HPLC-MS analysis. The following applies: in vivo. In kind it is ADME, organism-based.
For data set [16], the system named is HK-2. The experiment in a line: Inhibition of cisplatin-induced DNA damage in human HK-2 cells assessed as reduction in cleaved-PARP level at 2.5 to 10 uM by Western blot analysis. The conditions noted are these: dose 2.5-10 µM. In kind it is functional, cell-based. On the technique in general: A western blot detects proteins with antibodies after separation by electrophoresis.

The nature of data set [17]: MRT (0 to infinity) in ICR mouse 1 mg/kg, iv measured for 24 hrs by HPLC-MS analysis. In kind it is ADME, organism-based. The conditions noted are these: in vivo.
The nature of data set [18]: Acute toxicity in C57BL/6J mouse assessed as brain damage at 1 g/Kg, po measured for 2 weeks by H and E staining based analysis. The data set is classed as organism-based. The conditions noted are these: in vivo, 1000 mg/kg, 336 h.
Data set [19] can be described thus: MRT (0 to infinity) in ICR mouse 50 mg/kg, po measured for 24 hrs by HPLC-MS analysis. The data set is classed as ADME, organism-based. The following applies: in vivo.
Data set [20] in a line: Acute toxicity in C57BL/6J mouse assessed as ovary damage at 1 g/Kg, po measured for 2 weeks by H and E staining based analysis. The data set is classed as organism-based. The conditions noted are these: in vivo, 1000 mg/kg, 336 h.
The nature of data set [21]: Acute toxicity in C57BL/6J mouse assessed as abnormal behavior at 1 g/Kg, po measured for 2 weeks. The following applies: in vivo, 1000 mg/kg, 336 h. The data set is classed as organism-based.
Data set [22] can be described thus: Acute toxicity in C57BL/6J mouse assessed as heart damage at 1 g/Kg, po measured for 2 weeks by H and E staining based analysis. In kind it is organism-based. The conditions noted are these: in vivo, 1000 mg/kg, 336 h.
Data set [23] is described as follows: Clearance in ICR mouse 1 mg/kg, iv measured for 24 hrs by HPLC-MS analysis. The data set is classed as ADME, organism-based. The following applies: in vivo.
The nature of data set [24]: AUC (0 to infinity) in ICR mouse 50 mg/kg, po measured for 24 hrs by HPLC-MS analysis. The conditions noted are these: in vivo. The data set is classed as ADME, organism-based.
Data set [25] deals with Mus musculus. The experiment in a line: Protection against cisplatin-induced nephrotoxicity in C57BL6/J mouse assessed as reduction in SCR level in kidney at 100 mg/kg, po preadministered with compound for 2 days followed by cisplatin addition on day 3 and measured 72 hrs post cisplatin administration. In kind it is functional, organism-based. The following applies: time 5.0 day.

Data set [26] is described as follows: MRT (0 to t) in ICR mouse 50 mg/kg, po measured for 24 hrs by HPLC-MS analysis. The data set is classed as ADME, organism-based. The following applies: in vivo.
Data set [27] can be described thus: AUC (0 to t) in ICR mouse 1 mg/kg, iv measured for 24 hrs by HPLC-MS analysis. The data set is classed as ADME, organism-based. The following applies: in vivo.
Data set [28] has as its system HK-2. The experiment in a line: Upregulation of ATP7B mRNA level in human HK-2 cells at 2.5 to 10 uM by RT-qPCR analysis. In kind it is functional, cell-based. The conditions noted are these: dose 2.5-10 µM. (In general: In qPCR the cycle at which signal appears reflects the starting amount.)
Data set [29] can be described thus: Terminal half life in ICR mouse 50 mg/kg, po measured for 24 hrs by HPLC-MS analysis. The following applies: in vivo, read-out: beta t1/2 (converted). In kind it is ADME, organism-based.
A short description of data set [30]: MRT (0 to t) in ICR mouse 1 mg/kg, iv measured for 24 hrs by HPLC-MS analysis. The conditions noted are these: in vivo. In kind it is ADME, organism-based.
Data set [31] concerns HK-2. Put plainly: Inhibition of cisplatin-induced DNA damage in human HK-2 cells assessed as reduction in p-histone-H2AX level at 2.5 to 10 uM by Western blot analysis. The data set is classed as functional, cell-based. The conditions noted are these: dose 2.5-10 µM.
Data set [32] is described as follows: Acute toxicity in C57BL/6J mouse assessed as liver damage at 1 g/Kg, po measured for 2 weeks by H and E staining based analysis. In kind it is organism-based. The following applies: in vivo, 1000 mg/kg, 336 h.
A short description of data set [33]: Acute toxicity in C57BL/6J mouse assessed as spleen damage at 1 g/Kg, po measured for 2 weeks by H and E staining based analysis. The data set is classed as organism-based. The conditions noted are these: in vivo, 1000 mg/kg, 336 h.
Data set [34] can be described thus: Terminal half life in ICR mouse 1 mg/kg, iv measured for 24 hrs by HPLC-MS analysis. The following applies: in vivo, read-out: beta t1/2 (converted). In kind it is ADME, organism-based.
In data set [35] the test system is HK-2. The experiment in a line: Protection against cisplatin-induced nephrotoxicity in human HK-2 cells at 5 to 10 uM preincubated with compound for 2 hrs followed by cisplatin induction and measured after 72 hrs by MTT assay. In kind it is functional, cell-based. The conditions noted are these: dose 5-10 µM, time 74.0 hrs.
The nature of data set [36]: Cytotoxicity against human HK-2 cells incubated for 72 hrs by MTT assay. In kind it is toxicity, cell-based.
The test system of data set [37] is HK-2. The experiment in a line: Protection against cisplatin-induced nephrotoxicity in human HK-2 cells preincubated with compound for 2 hrs followed by cisplatin induction and measured after 72 hrs by MTT assay. In kind it is functional, cell-based. The following applies: dose 1-10 µM, time 74.0 hrs.
The subject of data set [38] is HK-2. The experiment in a line: Protection against cisplatin-induced nephrotoxicity in human HK-2 cells assessed as cell viability at 5 uM preincubated with compound for 2 hrs followed by cisplatin induction and measured after 72 hrs by MTT assay (reference value: 45.1 +/- 3.2%). In kind it is functional. The following applies: time 74 hrs, read-out: Activity.
Data set [39] has as its system HK-2. The experiment in a line: Protection against cisplatin-induced nephrotoxicity in human HK-2 cells increase in viability at 10 uM preincubated with compound for 2 hrs followed by cisplatin induction and measured after 72 hrs by MTT assay (reference value: 45.1%). The data set is classed as functional. The conditions noted are these: time 74 hrs.
For data set [40], the system named is HK-2. The experiment in a line: Protection against cisplatin-induced nephrotoxicity in human HK-2 cells assessed as cell viability at 10 uM preincubated with compound for 2 hrs followed by cisplatin induction and measured after 72 hrs by MTT assay (reference value: 45.1 +/- 3.2%). The data set is classed as functional. The conditions noted are these: time 74 hrs, read-out: Activity.

Regarding `COc1c(CO)c(OC)c(C(=O)c2ccccc2)c2c1C[C@H]1CC/C(C)=C/CC(C)(C)/C=C/C[C@]1(C)O2`, the outcome in [1], in data set [12], in data set [25] and in [28] was Active. Besides, the Activity result was “Non-Toxic” in [2]; “Non-Toxic” in data set [4]; “Non-Toxic” in data set [6]; “Dose-Dependent Effect” in data set [7]; “Non-Toxic” in [10]; “Non-Toxic” in [14]. Besides, the Activity entry in data set [18], in data set [20], in data set [21], in [22], in data set [32] and in data set [33] was “Non-Toxic” throughout. For the same compound, the values for the AUC(0-inf) in data set [3] and in [24] were 146 ng·h/mL and 869 ng·h/mL, respectively. Further, the Cmax was 485 ng/mL in data set [5] and 266 ng/mL in data set [15]. The outcome in data set [8] was inactive. Besides, the AUC(0-t) at 24 h in data set [9] was determined as 783 ng·h/mL; in [27], 137 ng·h/mL. The same compound returned a Vd in [11] of 24.4 L/kg. In addition, in data set [13], the bioavailability is 11.9%. The inhibition result in data set [16] and in data set [31] was “Active” throughout. For the same compound, the MRT inf in [17] worked out at 2.22 h; in data set [19], 3.21 h. In data set [23], this compound gave a clearance of 114 mL/min/kg. Further, the values for the MRT last at 24 h in data set [26] and in data set [30] were 2.29 h and 1.59 h, respectively. Besides, the half-life was 2.5 h in data set [29] and 2.47 h in data set [34].

On to `COc1c(C=O)c(OC)c(C(=O)c2ccccc2)c2c1CC1CC/C(C)=C/CC(C)(C)/C=C/CC1(C)O2` (stereo not given), for which the result in data set [35] and in [28] was Active. In data set [36], this compound showed an IC50 at 72 h greater than 10 µM. The results for the Activity result in data set [7], in [37] and in data set [39] were “Dose-Dependent Effect”, “Dose-Dependent Effect” and greater than 90%, respectively. In data set [8], the result was inactive. The inhibition entry in [16] and in data set [31] was “Active” throughout. Further, the viability at 5 µM in data set [38] was 82.8%. The viability at 10 µM in [40] was 90.6%.

The term AUC(0-inf) denotes total exposure, with the tail of the curve extrapolated. Broadly, the Cmax is the maximum level reached in the sampled fluid or tissue. By AUC(0-t) is commonly meant the area under the concentration-time curve up to a stated or last time point. Read a low AUC(0-t) as low exposure. A word on the Vd: it is the apparent volume that relates the amount in the body to the concentration in plasma or blood. Low readings indicate little distribution into tissue, high ones wide distribution into tissue. A word on the bioavailability: it is dose-corrected exposure relative to a reference, in per cent. For orientation: MRT inf means a mean duration of stay, worked out from the concentration-time curve. For orientation: clearance means a measure of how efficiently the substance is removed, as volume per time. Higher therefore signals a high capacity for elimination. The term MRT last denotes the average time that molecules of a dose stay in the body. For orientation: IC50 means the concentration that gives 50% inhibition. Read a low IC50 as inhibition by little substance.
